The text below walks through data of patent US7662361B2, “Methods and compositions for modulating drug activity through telomere damage” (priority 1999, dated 2010).

Assay type in all cases: cell-based, human
Assay [1] deals with FaDu cells. Put plainly: Cell growth of hTR antisense transfected cells. The settings on record: stably transfected FaDu cells. The source says:
Transfection procedures. Transfection of the antisense construct used an IPTG-inducible mammalian expression system, i.e., the LacSwitch II system (Stratagene), which consists of a recombinant vector (i.e., pOPRSVI) and an operator vector (i.e., pCMVLacI). The pOPRSVI vector contains both ampicillin and G418^r resistance genes which facilitate the selection of positive clones from E. Coli and eukaryotic cells. The 8 unique cloning sites of the vector facilitate bi-directional insertion of a cDNA to produce either sense or antisense transcripts. The Lac repressor vector (pCMVLacI) produces the Lac repressor protein, which binds to and inhibits the operator sequence in the pOPRSVI vector and thereby inhibits the expression of the inserted gene. IPTG decreases the binding affinity of the Lac repressor protein to the operator sequence and triggers transcription and expression of the inserted gene. The transfection procedures consisted of stable transfection of FaDu cells with first, the pCMVLacI vector, and then second, the pOPRSVI/MCS vector which contained an antisense or sense hTR fragment. Transfection was performed using Lipofectamine-mediated gene transfer. The selection of the clones expressing the pCMVLacI repressor construct was performed using […] of the antibiotic hygromycin. The selection of the clones expressing the pOPRSVI vector using G418. […]

Assay [2] has as its system FaDu cells. Put plainly: TALA telomere length in hTR antisense transfected cells.
The test system of the next assay is telomerase (hTR). Put plainly: Improved TRAP telomerase activity in hTR antisense transfected cells. As to the method: First, the extraction procedures in the conventional TRAP were not sufficient to completely lyse the cell nuclei and the extraction efficiency varied with the ratio between the volume of the extraction buffer and the volume of cells. […] For the preparation of cell and tissue extracts, cells and tissue were harvested, washed, and stored at −70° C. Cells were then lysed in a SDS-based lysis buffer (10 mM Tris.HCl, pH 7.5, 1 mM MgCl2, 1 mM EGTA, 0.1 mM phenylmethylsulfonyl fluoride, 5 mM β-mercaptoethanol, 0.1% CHAPS, and 10% glycerol), on ice for 10 min. To this mixture, three volumes of CHAPS-based buffer (10 mM Tris-HCl, pH 7.5, 1 mM MgCl2, 1 mM EGTA, 0.1 mM phenylmethylsulfonyl fluoride, 5 mM β-mercaptoethanol, 0.5% CHAPS, and 10% glycerol) were added and kept on ice for 5 min. SDS is a strong detergent which can completely lyse the cell including the nucleus. […] The protein concentration of the supernatant was determined using Bicinchoninic Acid Kit (Sigma, St Louis, Mo.). […] Samples with equal amounts of protein (1-2 μg) were analyzed by TRAP. In this assay, the enzyme activity is measured as the synthesis of repeating telomere hexamers (TTAGGG; SEQ ID NO: 10). […]

Assay [3] concerns telomerase activity of FaDu cells. Put plainly: TRAP telomerase activity in drug-treated cells. The note with it: cisplatin treatment, 48 to 96 hr.
Method: For the preparation of cell and tissue extracts, cells and tissue were harvested, washed, and stored at −70° C. Cells were then lysed in a SDS-based lysis buffer (10 mM Tris.HCl, pH 7.5, 1 mM MgCl2, 1 mM EGTA, 0.1 mM phenylmethylsulfonyl fluoride, 5 mM β-mercaptoethanol, 0.1% CHAPS, and 10% glycerol), on ice for 10 min. To this mixture, three volumes of CHAPS-based buffer (10 mM Tris-HCl, pH 7.5, 1 mM MgCl2, 1 mM EGTA, 0.1 mM phenylmethylsulfonyl fluoride, 5 mM β-mercaptoethanol, 0.5% CHAPS, and 10% glycerol) were added and kept on ice for 5 min. […] For the extraction of tissues, tissues were homogenized in SDS-based lysis buffer with a Kontes pellet pestle (Fisher, Pittsburgh, Pa.), mixed with three volumes of CHAPS-based buffer, and centrifuged were centrifuged at 8,000 g for 15 min at 4° C. The supernatant was kept at −20° C. The protein concentration of the supernatant was determined using Bicinchoninic Acid Kit (Sigma, St Louis, Mo.). The protein concentration was adjusted to 0.5 μg/μl with CHAPS-based buffer. Samples with equal amounts of protein (1-2 μg) were analyzed by TRAP. […] The TRAP reaction mixture contained 2-4 μl of protein extract, 20 mM Tris.HCl (pH 8.3), 1.5 mM MgCl2, 63 mM KCl, 0.005% Tween-20, 1 mM EGTA, 50 μM dNTPs, 0.1 μg of TS primer, 0.1 mg/ml bovine serum albumin. The mixture was incubated at 30° C. for 30 min, then at 90° C. for 2 min.
This was accomplished by using phenol/chloroform extraction of the cell lysate, as follows. One μg of tRNA and 0.1 ng internal control template were added to the reaction solution after primer extension. The total volume of the mixture was brought to 100 μl with water, mixed with an equal volume of buffer saturated phenol (Life Technology) and then centrifuged at 18,000 g for 3 min, at room temperature. The top aqueous layer (90 μl) was carefully transferred to a new tube and mixed with an equal volume of chloroform:isoamyl alcohol (24:1) solution and centrifuged at 18,000 g for 3 min, at room temperature. The top aqueous layer (80 μl) was again transferred to a new tube and the nucleotides were precipitated with 0.2 volume of 3 M sodium acetate (pH 5.3) and 3 volume of 100% ethanol at −70° C. for at least 2 hr. The mixture was centrifuged at 18,000 g for 15 min at 4° C. […]
The template for the internal standard was amplified by PCR and purified by spin columns (QIAquick PCR purification kit, Qiagen, Valencia, Calif.). The concentration was determined by a spectrophotometer.
PCR was performed on the GeneAmp PCR system 2400 (Perkin Elmer) and initiated by 1 cycle at 94° C. for 3 min, 50° C. for 4 min, and 68° C. for 2 min, then 25 rounds at 94° C. for 30 sec, 50° C. for 30 sec, and 68° C. for 90 sec, followed by 68° C. for 10 min. […] The gel was then dried and the amplification products were detected. […]
For assay [4], the system named is FaDu cells. Put plainly: Cell detachment from the growth surface.
Method: Upon drug treatment, the supernatant along with two subsequent Versene rinses, which contained the detached cells, were collected. […] These samples were centrifuged at 1500 rpm for 10 min and the resulting cell pellets were resuspended in 2 ml of culture media. The cell number in the detached and attached fractions were counted using a Coulter counter (Coulter Electronic, Inc., Hialeah, Fla.).
Treatment with the above agents was initiated after cells were allowed to attach to the growth surface in culture flasks. On the day of experiments, the culture medium was removed and replaced with drug-containing medium. […] For d4T, two concentrations, 20 μM and 40 μM were used.
Agent effect was measured in three ways, i.e., enumeration of the number of cells that remained attached in culture flask, enumeration of the number of cells that detached from the growth surface, and by measuring changes in apoptosis. […] The drug-induced detachment of cells from the growth surface was determined by counting the attached and detached cells.

Structures are written as SMILES.

In the assay on FaDu cells [1], `CC(C)S[C@@H]1O[C@H](CO)[C@H](O)[C@H](O)[C@H]1O` [+IPTG] yielded a Doubling time of 23 h. Moreover, the Terminal restriction fragment with FaDu cells [2] was 2.91 kb. Besides, the telomerase activity in the assay with telomerase (hTR) is 98.9 % of control.

Consider `N.N.[Cl][Pt][Cl]` [cisplatin], for which the telomerase activity in assay [3] was 50 % of the baseline level.

In the case of `Cc1cn([C@H]2C=C[C@@H](CO)O2)c(=O)[nH]c1=O` [d4T, 3′-deoxy-2′,3′-didehydrothymidine], in the assay on FaDu cells [4] (d4T 20 μM and 40 μM), the “detachment of cells from the growth surface” value is listed as less than 8%. Further, in the assay on FaDu cells [4] (d4T 20 or 40 μM), the “effect of addition of d4T to paclitaxel on detached cell fraction” value is recorded as “significantly enhanced the detached cell fraction”.
